Laboratory results as given in patent US8785477B2, “Hexahydropyrrolo[3,4-b]pyrrole derivatives, preparation methods and pharmaceutical uses thereof” (Shanghai Sun-Sail Pharmaceutical Science & Technology Co., …, priority 2010, dated 2014).
Structures can show the parent of a compound that is named as a salt. Where two headings read alike, the source gives them in different places. Each block holds one compound with its values, some of them ahead of it.

Legend:
[1] = biological target: T1, DPPIV (Homo sapiens (Human), UniProt P27487); experiment: DPP-IV-inhibiting activity, fluorescence assay with Ala-Pro-AMC substrate; assay type: biochemical; conditions: pH7.5, 37° C.
T1 sequence (P27487 whole entry): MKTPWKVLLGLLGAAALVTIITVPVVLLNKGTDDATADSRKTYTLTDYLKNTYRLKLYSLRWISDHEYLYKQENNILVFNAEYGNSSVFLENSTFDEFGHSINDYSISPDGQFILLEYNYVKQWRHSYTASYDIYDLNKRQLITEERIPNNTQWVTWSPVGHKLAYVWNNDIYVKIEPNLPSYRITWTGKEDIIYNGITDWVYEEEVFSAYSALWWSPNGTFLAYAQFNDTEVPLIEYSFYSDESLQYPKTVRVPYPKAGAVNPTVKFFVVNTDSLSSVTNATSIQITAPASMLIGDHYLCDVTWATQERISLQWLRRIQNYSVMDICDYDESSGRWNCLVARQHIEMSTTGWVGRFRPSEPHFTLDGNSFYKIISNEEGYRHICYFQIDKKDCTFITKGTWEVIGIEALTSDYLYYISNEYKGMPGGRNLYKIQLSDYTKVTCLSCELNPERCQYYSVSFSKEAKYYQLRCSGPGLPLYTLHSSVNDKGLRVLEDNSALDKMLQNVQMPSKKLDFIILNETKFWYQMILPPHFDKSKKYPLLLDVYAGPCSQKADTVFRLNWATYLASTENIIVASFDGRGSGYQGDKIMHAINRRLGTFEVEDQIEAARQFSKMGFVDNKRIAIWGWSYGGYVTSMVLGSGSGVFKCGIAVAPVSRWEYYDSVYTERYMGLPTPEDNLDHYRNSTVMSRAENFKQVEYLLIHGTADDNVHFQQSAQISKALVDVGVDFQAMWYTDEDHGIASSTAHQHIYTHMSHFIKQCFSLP
Description: Determination of DPP-IV-inhibiting activity could be performed by common methods. DPP-IV was pure enzyme expressed by using baculovirus expressing system and purified. […] The reaction system was carried out in buffer of pH7.5 and the substrate was alanine-proline-7-amino-4-methylcoumarin (Ala-Pro-AMC).
DPP-IV could degradate substrate Ala-Pro-AMC to give product AMC. […] The DPP-IV activity could be determined by dynamic detecting the increasing speed of fluorescence value at 460 nm.
Thoroughly mixed test compounds, enzyme and reaction buffer, preincubated the mixture for 15 minutes at 37° C. and then primed reaction by adding substrate, successfully detecting fluorescence value at 460 nm for 5 minutes. […] All final reaction volumes were 100 μL. Each concentration of each sample consisted of parallel wells in triplate.
Firstly, calculated the increment of fluorescence intensity per unit time during the initial speed of enzyme (unit: RFU/sec) which can be used to express initial speed, then calculated activity percentage of sample in each concentration group as follows: Activity %=vsample/vDMSO*100%
Wherein, vsample represents initial speed of sample in each concentration group, vDMSO represents initial speed of DMSO group.
Logarithm concentration was plotted versus activity percentage, and then calculated fitting curve by nonlinear regression from which IC50 value was calculated.

[2] = biological target: DPP8 (Homo sapiens (Human), UniProt Q6V1X1); experiment: Selectivity panel, recombinant dipeptidase inhibition (fluorescence substrate): DPP8; assay type: biochemical; conditions: for Selective ratio DPP8/DPPIV: ratio of IC50 values; for IC50: recombinant DPP8
Chain of DPP8 (Q6V1X1 whole entry): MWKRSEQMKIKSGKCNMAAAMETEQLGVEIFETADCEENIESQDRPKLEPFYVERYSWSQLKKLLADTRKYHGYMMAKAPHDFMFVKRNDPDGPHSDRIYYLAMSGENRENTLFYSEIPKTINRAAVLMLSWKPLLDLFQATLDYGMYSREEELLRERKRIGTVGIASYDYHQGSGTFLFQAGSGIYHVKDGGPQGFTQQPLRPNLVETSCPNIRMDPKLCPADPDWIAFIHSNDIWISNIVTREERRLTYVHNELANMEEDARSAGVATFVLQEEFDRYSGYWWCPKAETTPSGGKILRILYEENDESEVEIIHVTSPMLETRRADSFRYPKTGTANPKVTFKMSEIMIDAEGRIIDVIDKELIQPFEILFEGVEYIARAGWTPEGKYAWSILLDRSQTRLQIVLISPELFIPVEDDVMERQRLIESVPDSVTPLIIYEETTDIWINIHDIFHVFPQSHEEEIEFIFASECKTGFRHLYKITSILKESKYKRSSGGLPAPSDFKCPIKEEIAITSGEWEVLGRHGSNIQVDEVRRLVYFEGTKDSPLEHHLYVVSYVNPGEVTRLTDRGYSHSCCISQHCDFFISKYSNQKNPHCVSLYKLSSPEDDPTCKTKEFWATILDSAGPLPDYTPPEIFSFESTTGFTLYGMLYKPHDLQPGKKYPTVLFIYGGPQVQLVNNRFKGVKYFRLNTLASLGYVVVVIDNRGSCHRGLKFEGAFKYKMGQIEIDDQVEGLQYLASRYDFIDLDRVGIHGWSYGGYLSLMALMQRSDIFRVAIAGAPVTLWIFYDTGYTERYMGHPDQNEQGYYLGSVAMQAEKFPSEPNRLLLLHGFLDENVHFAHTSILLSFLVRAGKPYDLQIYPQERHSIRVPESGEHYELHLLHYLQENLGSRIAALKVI
From the text: (§1) The recombinant proteins of DPPIV, DPP8, DPP9 and FAP were expressed by using insect expression system (purchased from Shanghai Jinmai Biotechnology Co. Ltd). The activities of these […] were detected by using fluorescence substrate.

[3] = In vivo pharmacokinetic study in rats (gavage); parameters: species or system SD rats; conditions: 20 mg/kg gavage
Description: 12 healthy, male SD rats with 200-220 g body weight were assigned randomly to 3 groups (4 in each group), particular assignment was shown in the table below:
Rats were fasted for 12 h before test with free access to water and uniformly fed at 2 h after administration.
Time points of blood collecting and samples treatment: 0.3 mL blood was drawn through mice post-glomus venous plexus at 0.25, 0.5, 1.0, 2.0, 3.0, 4.0, 5.0, 7.0, 9.0 and 24 hours post-administration, placed in heparinized test tube, centrifuged at 3000 rpm/min for 10 minutes, separated plasma, frozen in refrigerator at −20° C. Unchanged drug concentration in plasma was determined by liquid chromatography-tandem mass spectrometry method.

[4] = biological target: T1, DPPIV; experiment: Selectivity panel, recombinant dipeptidase inhibition (fluorescence substrate): DPPIV; assay type: biochemical
From the text: as §1

[5] = biological target: FAP (Homo sapiens (Human), UniProt Q12884); experiment: Selectivity panel, recombinant dipeptidase inhibition (fluorescence substrate): FAP; assay type: biochemical
Chain of FAP (Q12884 whole entry): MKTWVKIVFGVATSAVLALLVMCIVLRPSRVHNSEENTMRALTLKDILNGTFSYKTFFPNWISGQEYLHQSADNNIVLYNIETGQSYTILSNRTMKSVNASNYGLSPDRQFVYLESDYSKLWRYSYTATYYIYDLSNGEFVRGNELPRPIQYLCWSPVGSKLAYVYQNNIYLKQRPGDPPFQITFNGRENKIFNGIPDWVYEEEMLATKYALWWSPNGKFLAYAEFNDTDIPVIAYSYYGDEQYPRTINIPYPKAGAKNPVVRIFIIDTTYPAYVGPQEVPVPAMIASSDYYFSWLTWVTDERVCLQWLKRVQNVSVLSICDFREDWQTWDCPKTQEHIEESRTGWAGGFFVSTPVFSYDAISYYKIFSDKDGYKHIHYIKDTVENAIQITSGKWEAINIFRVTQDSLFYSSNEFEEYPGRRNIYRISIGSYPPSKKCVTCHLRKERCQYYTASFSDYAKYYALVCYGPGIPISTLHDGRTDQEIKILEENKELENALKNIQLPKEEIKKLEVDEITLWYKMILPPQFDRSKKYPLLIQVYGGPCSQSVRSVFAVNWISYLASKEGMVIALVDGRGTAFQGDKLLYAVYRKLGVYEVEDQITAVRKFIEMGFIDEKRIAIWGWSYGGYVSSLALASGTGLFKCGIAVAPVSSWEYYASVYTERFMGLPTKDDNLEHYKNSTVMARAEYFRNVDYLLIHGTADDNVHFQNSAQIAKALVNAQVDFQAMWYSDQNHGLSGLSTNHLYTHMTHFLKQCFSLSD
From the text: as §1

[6] = system: normal ICR mice; experiment: In vivo glucose-decreasing activity, oral glucose load in normal mice; conditions: 3.0 mg/kg gavage; for AUC (area under curve of blood glucose): glucose load 60 min post-administration, x ± s
Description: 70 male clean-grade ICR mice with 20.0-24.0 g body weight were provided by Experimental Animal Center of Zhejiang University. Production license number of experimental animal: SCXK[zhe]2007-0039; Use license number of experimental animal: SYXK(zhe)2007-0098.
Feeding condition for animals: met the requirement for experimental facility of SPF grade animals, temperature at 20-25° C., humidity of 0-70%, illuminating condition was alternately 12 hours of brightness and 12 hours of darkness, ventilation rate was 10-20 times per hour, free access to water (city drinking water), illumination was 12 h/12 h of alternating light and dark at day and night respectively.
50 male clean-grade mice passing quarantine with 20.0-24.0 g body weight were randomly divided into 5 groups which included solvent control group, model group, compound dose group (3.0 mg/kg) respectively, 10 per group.
Mice in each group were fasted for 12 hours and then 0.08 mL blood was drawn by cutting tail. Serum was collected and used to determinating fasting blood glucose value. After drawing blood, mice in each dose group were administrated by gavage with different drug solution of corresponding dose and mice in solvent control and model group were administrated with distilled water of equal volume, wherein administration volume was 0.2 mL/10 g. 0.08 mL blood was drawn from each group at 60 minutes post-administration to determine the blood glucose value at 60 minutes post-administration. After drawing blood, […] glucose was administrated by gavage to each group except for solvent control group, wherein administration volume was 0.2 mL/10 g, and then blood was drawn at 20 min, 40 min, 60 min, 120 min after administration of glucose respectively, blood was centrifugated at 6000 rpm for 10 min to separate serum for determining the blood glucose value at each time point, area under curve of blood glucose was calculated on the basis of blood glucose concentration.

[7] = biological target: DPP9 (Homo sapiens (Human), UniProt Q86TI2); experiment: Selectivity panel, recombinant dipeptidase inhibition (fluorescence substrate): DPP9; assay type: biochemical; conditions: for Selective ratio DPP9/DPPIV: ratio of IC50 values; for IC50: recombinant DPP9
Chain of DPP9 (Q86TI2 whole entry): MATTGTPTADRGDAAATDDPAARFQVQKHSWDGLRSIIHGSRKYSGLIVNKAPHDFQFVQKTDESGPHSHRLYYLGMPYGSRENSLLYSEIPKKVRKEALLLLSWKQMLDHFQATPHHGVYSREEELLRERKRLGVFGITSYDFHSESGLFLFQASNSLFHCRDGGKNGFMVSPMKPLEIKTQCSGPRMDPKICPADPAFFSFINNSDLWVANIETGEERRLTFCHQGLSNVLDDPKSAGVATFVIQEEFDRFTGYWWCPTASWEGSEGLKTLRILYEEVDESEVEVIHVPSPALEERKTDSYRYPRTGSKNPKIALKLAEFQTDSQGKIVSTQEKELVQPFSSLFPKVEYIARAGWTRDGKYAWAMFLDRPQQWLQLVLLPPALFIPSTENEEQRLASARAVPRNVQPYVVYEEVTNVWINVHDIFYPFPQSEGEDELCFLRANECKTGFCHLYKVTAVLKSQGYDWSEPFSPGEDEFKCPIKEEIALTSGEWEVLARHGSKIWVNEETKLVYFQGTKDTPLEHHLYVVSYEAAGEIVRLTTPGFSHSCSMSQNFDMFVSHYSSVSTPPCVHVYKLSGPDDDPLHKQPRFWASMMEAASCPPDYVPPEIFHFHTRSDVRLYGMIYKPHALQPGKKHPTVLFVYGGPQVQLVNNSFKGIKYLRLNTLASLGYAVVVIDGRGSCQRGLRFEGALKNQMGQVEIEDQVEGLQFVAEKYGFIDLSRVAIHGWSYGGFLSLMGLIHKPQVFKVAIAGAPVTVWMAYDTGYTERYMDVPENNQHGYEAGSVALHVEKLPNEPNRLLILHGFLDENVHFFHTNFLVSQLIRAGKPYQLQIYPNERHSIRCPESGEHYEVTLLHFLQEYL
From the text: as §1

[8] = male, SD, rat, plasma, po, read-out: Cmax
[9] = male, SD, rat, plasma, po, read-out: Tmax

Compound: CC(C)(F)C(=O)N1C[C@@H]2CCN(C(=O)C[C@H](N)Cc3cc(F)c(F)cc3F)[C@@H]2C1 [Compound 8, (R)-3-amino-1-((3aS,6aS)-5-(2-fluoro-2-methylpropionyl)-hexahydropyrrolo[3,4-b]pyrrol-1(2H)-yl)-4-(2,4,5-trifluorophenyl)butan-1-onefumarate]
- Selective ratio DPP8/DPPIV [2]: 1602
- IC50 [2]: 17600 ± 3610 nM
- AUC0−t [3]: 2921 ngh/mL
- half-life ([3]; male, SD, rat, plasma, po): 2.29 h
- Cmax [3, 8]: 933 ng/mL
- Tmax [3, 9]: 1 h
- IC50 [4]: 11 nM
- IC50 [5]: 13500 ± 280 nM
- inhibition rate (blood glucose AUC) [6]: 63.0%
- AUC (area under curve of blood glucose) [6]: 129 ± 41 mmol·min/L
- IC50 [1]: 11.2 ± 3.76 nM
- Selective ratio DPP9/DPPIV [7]: 322
- IC50 [7]: 3550 ± 1020 nM

Compound: CC(C)(C)C(=O)N1C[C@@H]2CCN(C(=O)C[C@H](N)Cc3cc(F)c(F)cc3F)[C@@H]2C1 [Compound 20, (R)-3-amino-1-((3aS,6aS)-5-(tertvaleryl)-hexahydropyrrolo[3,4-b]pyrrol-1(2H)-yl)-4-(2,4,5-trifluorophenyl)butan-1-one fumarate]
- Selective ratio DPP8/DPPIV [2]: 907
- IC50 [2]: 20900 ± 5630 nM
- AUC0−t [3]: 2076 ngh/mL
- half-life ([3]; male, SD, rat, plasma, po): 2.45 h
- Cmax [3, 8]: 917 ng/mL
- Tmax [3, 9]: 0.81 h
- IC50 [4]: 23 nM
- IC50 [5]: 15900 ± 4720 nM
- inhibition rate (blood glucose AUC) [6]: 38.3%
- AUC (area under curve of blood glucose) [6]: 215 ± 44 mmol·min/L
- IC50 [1]: 23.2 ± 2.24 nM
- Selective ratio DPP9/DPPIV [7]: 241
- IC50 [7]: 5550 ± 2520 nM

Compound: CS(=O)(=O)c1cccc(C(=O)N2C[C@@H]3CCN(C(=O)C[C@H](N)Cc4cc(F)c(F)cc4F)[C@@H]3C2)c1.O=C(O)/C=C/C(=O)O [Compound 26, (R)-3-amino-1-((3aS,6aS)-5-(3-mesylbenzoyl)-hexahydropyrrolo[3,4-b]pyrrol-1(2H)-yl)-4-(2,4,5-trifluorophenyl)butan-1-one fumarate]
- Selective ratio DPP8/DPPIV [2]: 6057
- IC50 [2]: 15800 ± 7650 nM
- IC50 [4]: 2.6 nM
- IC50 [5]: 11300 ± 4020 nM
- IC50 [1]: 2.61 ± 0.46 nM
- Selective ratio DPP9/DPPIV [7]: 1311
- IC50 [7]: 3450 ± 3470 nM

Compound: N[C@@H](CC(=O)N1CCn2c(nnc2C(F)(F)F)C1)Cc1cc(F)c(F)cc1F [Sitagliptin, reference compound]
- AUC0−t [3]: 1655 ngh/mL
- Cmax [3]: 477 ng/mL
- T1/2 [3]: 2.11 h
- Tmax [3]: 0.44 h
- inhibition rate (blood glucose AUC) [6]: 31.1%
- AUC (area under curve of blood glucose) [6]: 240 ± 24 mmol·min/L

Further lines, results first:

- IC50 [1]: 22.8 ± 1.99 nM
Compound: CN1C[C@@H]2CCN(C(=O)C[C@H](N)Cc3cc(F)c(F)cc3F)[C@@H]2C1 [Compound 1, (R)-3-amino-1-((3aS,6aS)-hexahydro-5-methylpyrrolo[3,4-b]pyrrol-1(2H)-yl)-4-(2,4,5-trifluorophenyl)butan-1-one fumarate]

- IC50 [1]: 17.7 ± 3.77 nM
Compound: CN(C)C(=O)N1C[C@@H]2CCN(C(=O)C[C@H](N)Cc3cc(F)c(F)cc3F)[C@@H]2C1 [Compound 3, (R)-3-amino-1-((3aS,6aS)-5-(N,N-dimethylaminoformyl)-hexahydropyrrolo[3,4-b]pyrrol-1(2H)-yl)-4-(2,4,5-trifluorophenyl)butane-1-one fumarate]

- IC50 [1]: 25.9 ± 3.91 nM
Compound: N[C@@H](CC(=O)N1CC[C@H]2CN(C(=O)C3CC3)C[C@H]21)Cc1cc(F)c(F)cc1F [Compound 12, (R)-3-amino-1-((3aS,6aS)-5-(cyclopropylcarbonyl)-hexahydropyrrolo[3,4-b]pyrrol-1(2H)-yl)-4-(2,4,5-trifluorophenyl)butan-1-one fumarate]

- IC50 [1]: 11.5 nM
Compound: N#CC1(C(=O)N2C[C@@H]3CCN(C(=O)C[C@H](N)Cc4cc(F)c(F)cc4F)[C@@H]3C2)CC1 [Compound 17, (R)-3-amino-1-((3aS,6aS)-5-(1-cyanocyclopropylcarbonyl)-hexahydropyrrolo[3,4-b]pyrrol-1(2H)-yl)-4-(2,4,5-trifluorophenyl)butan-1-one fumarate]
